From PMC8578332 (Scientific Reports, 2021)
Where a SMILES comes first, the peptide text is derived from it. Bridges are numbered along the chain shown (N, C = ends).

Target: human α7-containing nAChRs (Homo sapiens, UniProt P36544)
Assay: cell-based
Format: cell-based
Details: not given

Chain of human α7-containing nAChRs (P36544 23-502 limits assumed): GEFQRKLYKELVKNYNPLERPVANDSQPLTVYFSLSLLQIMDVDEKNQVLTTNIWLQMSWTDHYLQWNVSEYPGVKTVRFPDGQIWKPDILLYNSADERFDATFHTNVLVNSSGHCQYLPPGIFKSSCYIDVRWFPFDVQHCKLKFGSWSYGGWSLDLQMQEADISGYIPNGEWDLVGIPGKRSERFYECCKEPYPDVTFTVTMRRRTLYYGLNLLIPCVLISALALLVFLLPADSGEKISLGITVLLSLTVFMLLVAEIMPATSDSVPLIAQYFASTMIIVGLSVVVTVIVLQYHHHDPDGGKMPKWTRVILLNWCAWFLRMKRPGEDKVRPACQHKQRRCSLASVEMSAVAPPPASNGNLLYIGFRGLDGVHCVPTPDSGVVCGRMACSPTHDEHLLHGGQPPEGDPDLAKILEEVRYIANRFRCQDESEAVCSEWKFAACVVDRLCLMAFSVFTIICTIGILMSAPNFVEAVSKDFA

Compound	Ratio (IC50 ratio between gAusIA/rAusIA and its corresponding analogues)	antagonistic activity / potency at α7-containing nAChRs in words	IC50	fold decrease (loss) in potency relative to wildtype of same isomer
CC(C)[C@H](NC(=O)[C@@H]1CSSC[C@@H]2NC(=O)[C@@H](NC(=O)CN)CSSC[C@H](NC(=O)[C@H](C)NC(=O)[C@@H]3CCCN3C(=O)[C@H](CC(N)=O)NC(=O)[C@H](CCCNC(=N)N)NC(=O)[C@H](C)NC2=O)C(=O)N[C@@H](CCCNC(=N)N)C(=O)N[C@@H](Cc2c[nH]cn2)C(=O)N[C@@H](CC(N)=O)C(=O)N[C@@H](Cc2c[nH]cn2)C(=O)N2CCC[C@H]2C(=O)N1)C(N)=O [gAusIA [S1G]] (H-GCCARNPACRHNHPCV-NH2; disulfide 2-9, 3-15)	0.70	comparable potency to gAusIA		
CC(C)[C@H](NC(=O)[C@@H]1CSSC[C@@H]2NC(=O)[C@@H](NC(=O)[C@@H](N)CO)CSSC[C@H](NC(=O)[C@H](C)NC(=O)[C@@H]3CCCN3C(=O)[C@H](CC(N)=O)NC(=O)[C@H](C)NC(=O)[C@H](C)NC2=O)C(=O)N[C@@H](CCCNC(=N)N)C(=O)N[C@@H](Cc2c[nH]cn2)C(=O)N[C@@H](CC(N)=O)C(=O)N[C@@H](Cc2c[nH]cn2)C(=O)N2CCC[C@H]2C(=O)N1)C(N)=O [gAusIA [R5A]] (H-SCCAANPACRHNHPCV-NH2; disulfide 2-9, 3-15)			> 100 µM	
CC(C)[C@H](NC(=O)[C@@H]1CSSC[C@@H]2NC(=O)[C@@H](NC(=O)[C@@H](N)CO)CSSC[C@H](NC(=O)[C@H](C)NC(=O)[C@@H]3CCCN3C(=O)[C@H](CC(N)=O)NC(=O)[C@H](CO)NC(=O)[C@H](C)NC2=O)C(=O)N[C@@H](CCCNC(=N)N)C(=O)N[C@@H](Cc2c[nH]cn2)C(=O)N[C@@H](CC(N)=O)C(=O)N[C@@H](Cc2c[nH]cn2)C(=O)N2CCC[C@H]2C(=O)N1)C(N)=O [gAusIA [R5S]] (H-SCCASNPACRHNHPCV-NH2; disulfide 2-9, 3-15)			> 100 µM	
CC(C)[C@H](NC(=O)[C@@H]1CSSC[C@H](NC(=O)[C@@H](N)CO)C(=O)N[C@H]2CSSC[C@H](NC(=O)[C@H](C)NC(=O)[C@H](C)NC(=O)[C@H](CC(N)=O)NC(=O)[C@H](CCCNC(=N)N)NC(=O)[C@H](C)NC2=O)C(=O)N[C@@H](CCCNC(=N)N)C(=O)N[C@@H](Cc2c[nH]cn2)C(=O)N[C@@H](CC(N)=O)C(=O)N[C@@H](Cc2c[nH]cn2)C(=O)N2CCC[C@H]2C(=O)N1)C(N)=O [rAusIA [P7A]] (H-SCCARNAACRHNHPCV-NH2; disulfide 2-15, 3-9)			> 100 µM	
CC(C)[C@H](NC(=O)[C@@H]1CSSC[C@H](NC(=O)[C@@H](N)CO)C(=O)N[C@H]2CSSC[C@H](NC(=O)[C@H](C)NC(=O)[C@@H]3CCCN3C(=O)[C@H](CC(N)=O)NC(=O)[C@H](CCCNC(=N)N)NC(=O)[C@H](C)NC2=O)C(=O)N[C@@H](C)C(=O)N[C@@H](Cc2c[nH]cn2)C(=O)N[C@@H](CC(N)=O)C(=O)N[C@@H](Cc2c[nH]cn2)C(=O)N2CCC[C@H]2C(=O)N1)C(N)=O [rAusIA [R10A]] (H-SCCARNPACAHNHPCV-NH2; disulfide 2-15, 3-9)			> 100 µM	
CC(C)C[C@@H]1NC(=O)[C@H](CCCNC(=N)N)NC(=O)[C@@H]2CSSC[C@H](NC(=O)[C@@H](N)CO)C(=O)N[C@@H](CSSC[C@@H](C(=O)N[C@H](C(N)=O)C(C)C)NC(=O)[C@@H]3CCCN3C(=O)[C@H](Cc3c[nH]cn3)NC(=O)[C@H](CC(N)=O)NC1=O)C(=O)N[C@@H](C)C(=O)N[C@@H](CCCNC(=N)N)C(=O)N[C@@H](CC(N)=O)C(=O)N1CCC[C@H]1C(=O)N[C@@H](C)C(=O)N2 [gAusIA [H11L]] (H-SCCARNPACRLNHPCV-NH2; disulfide 2-9, 3-15)		inactive	> 100 µM	
CC(C)[C@H](NC(=O)[C@@H]1CSSC[C@H](NC(=O)CN)C(=O)N[C@H]2CSSC[C@H](NC(=O)[C@H](C)NC(=O)[C@@H]3CCCN3C(=O)[C@H](CC(N)=O)NC(=O)[C@H](CCCNC(=N)N)NC(=O)[C@H](C)NC2=O)C(=O)N[C@@H](CCCNC(=N)N)C(=O)N[C@@H](Cc2c[nH]cn2)C(=O)N[C@@H](CC(N)=O)C(=O)N[C@@H](Cc2c[nH]cn2)C(=O)N2CCC[C@H]2C(=O)N1)C(N)=O [rAusIA [S1G]] (H-GCCARNPACRHNHPCV-NH2; disulfide 2-15, 3-9)	2.00			two

Same assay, conditions: SEM

Compound	IC50
C[C@@H]1NC(=O)[C@@H]2CSSC[C@H](NC(=O)[C@H](C)NC(=O)[C@@H]3CCCN3C(=O)[C@H](CC(N)=O)NC1=O)C(=O)N[C@@H](CCCNC(=N)N)C(=O)N[C@@H](Cc1c[nH]cn1)C(=O)N[C@@H](CC(N)=O)C(=O)N[C@@H](Cc1c[nH]cn1)C(=O)N1CCC[C@H]1C(=O)N[C@H](C(N)=O)CSSC[C@H](NC(=O)[C@@H](N)CO)C(=O)N2 [rAusIA [∆5 ∆16]] (H-SCCANPACRHNHPC-NH2; disulfide 2-14, 3-8)	27 ± 5.3 µM
CC(C)[C@H](NC(=O)[C@@H]1CSSC[C@H](NC(=O)[C@@H](N)CO)C(=O)N[C@H]2CSSC[C@H](NC(=O)[C@H](C)NC(=O)[C@@H]3CCCN3C(=O)[C@H](CC(N)=O)NC(=O)[C@H](CO)NC2=O)C(=O)N[C@@H](CCCNC(=N)N)C(=O)N[C@@H](Cc2c[nH]cn2)C(=O)N[C@@H](CC(N)=O)C(=O)N[C@@H](Cc2c[nH]cn2)C(=O)N2CCC[C@H]2C(=O)N1)C(N)=O [rAusIA [A4S ∆5]] (H-SCCSNPACRHNHPCV-NH2; disulfide 2-14, 3-8)	29 ± 1.1 µM
CC(C)[C@H](NC(=O)[C@@H]1CSSC[C@@H]2NC(=O)[C@@H](NC(=O)[C@@H](N)CO)CSSC[C@H](NC(=O)[C@H](C)NC(=O)[C@@H]3CCCN3C(=O)[C@H](CC(N)=O)NC(=O)[C@H](CCCNC(=N)N)NC2=O)C(=O)N[C@@H](CCCNC(=N)N)C(=O)N[C@@H](Cc2c[nH]cn2)C(=O)N[C@@H](CC(N)=O)C(=O)N[C@@H](Cc2c[nH]cn2)C(=O)N2CCC[C@H]2C(=O)N1)C(N)=O [gAusIA [∆4]] (H-SCCRNPACRHNHPCV-NH2; disulfide 2-8, 3-14)	1 ± 0.03 µM
CC[C@H](C)[C@@H]1NC(=O)[C@H](CC(N)=O)NC(=O)[C@@H]2CCCN2C(=O)[C@H](CC(N)=O)NC(=O)[C@H](CC(N)=O)NC(=O)[C@H](C(C)C)NC(=O)[C@H](CCCNC(=N)N)NC(=O)[C@@H]2CSSC[C@H](NC(=O)[C@@H](NC(=O)CNC(=O)[C@@H](N)CO)CSSC[C@@H](C(N)=O)NC1=O)C(=O)N[C@@H](C)C(=O)N[C@@H](CO)C(=O)N[C@@H](CC(N)=O)C(=O)N1CCC[C@H]1C(=O)N[C@@H](C)C(=O)N2 [rLsIA [∇A5]] (H-SGCCASNPACRVNNPNIC-NH2; disulfide 3-18, 4-10)	57 ± 14.7 µM
CC[C@H](C)[C@@H]1NC(=O)[C@H](CC(N)=O)NC(=O)[C@@H]2CCCN2C(=O)[C@H](CC(N)=O)NC(=O)[C@H](CC(N)=O)NC(=O)[C@H](C(C)C)NC(=O)[C@H](CCCNC(=N)N)NC(=O)[C@@H]2CSSC[C@H](NC(=O)CNC(=O)[C@@H](N)CO)C(=O)N[C@@H](CSSC[C@@H](C(N)=O)NC1=O)C(=O)N[C@@H](C)C(=O)N[C@@H](CO)C(=O)N[C@@H](CC(N)=O)C(=O)N1CCC[C@H]1C(=O)N[C@@H](C)C(=O)N2 [gLsIA [∇A5]] (H-SGCCASNPACRVNNPNIC-NH2; disulfide 3-10, 4-18)	48 ± 13.2 µM
CC(C)C[C@@H]1NC(=O)[C@H](CCCNC(=N)N)NC(=O)[C@@H]2CSSC[C@H](NC(=O)[C@@H](NC(=O)[C@@H](N)CO)CSSC[C@@H](C(=O)N[C@H](C(N)=O)C(C)C)NC(=O)[C@@H]3CCCN3C(=O)[C@H](Cc3c[nH]cn3)NC(=O)[C@H](CC(N)=O)NC1=O)C(=O)N[C@@H](C)C(=O)N[C@@H](CCCNC(=N)N)C(=O)N[C@@H](CC(N)=O)C(=O)N1CCC[C@H]1C(=O)N[C@@H](C)C(=O)N2 [rAusIA [H11L]] (H-SCCARNPACRLNHPCV-NH2; disulfide 2-15, 3-9)	30 ± 2.2 µM
CC(C)[C@H](NC(=O)[C@@H]1CSSC[C@@H]2NC(=O)[C@@H](NC(=O)[C@@H](N)CO)CSSC[C@H](NC(=O)[C@H](C)NC(=O)[C@@H]3CCCN3C(=O)[C@H](CC(N)=O)NC(=O)[C@H](C)NC2=O)C(=O)N[C@@H](CCCNC(=N)N)C(=O)N[C@@H](Cc2c[nH]cn2)C(=O)N[C@@H](CC(N)=O)C(=O)N[C@@H](Cc2c[nH]cn2)C(=O)N2CCC[C@H]2C(=O)N1)C(N)=O [gAusIA [∆5]] (H-SCCANPACRHNHPCV-NH2; disulfide 2-8, 3-14)	0.59 ± 0.08 µM
CC[C@H](C)[C@@H]1NC(=O)[C@H](CC(N)=O)NC(=O)[C@@H]2CCCN2C(=O)[C@H](CC(N)=O)NC(=O)[C@H](CC(N)=O)NC(=O)[C@H](C(C)C)NC(=O)[C@H](CCCNC(=N)N)NC(=O)[C@@H]2CSSC[C@H](NC(=O)[C@@H](NC(=O)CNC(=O)[C@@H](N)CO)CSSC[C@@H](C(N)=O)NC1=O)C(=O)N[C@@H](CCCNC(=N)N)C(=O)N[C@@H](CC(N)=O)C(=O)N1CCC[C@H]1C(=O)N[C@@H](C)C(=O)N2 [rLsIA [S5R]] (H-SGCCRNPACRVNNPNIC-NH2; disulfide 3-17, 4-9)	27 ± 5.3 µM
C[C@@H]1NC(=O)[C@@H]2CSSC[C@@H](C(N)=O)NC(=O)[C@@H]3CCCN3C(=O)[C@H](Cc3c[nH]cn3)NC(=O)[C@H](CC(N)=O)NC(=O)[C@H](Cc3c[nH]cn3)NC(=O)[C@H](CCCNC(=N)N)NC(=O)[C@H](CSSC[C@H](NC(=O)[C@@H](N)CO)C(=O)N2)NC(=O)[C@H](C)NC(=O)[C@@H]2CCCN2C(=O)[C@H](CC(N)=O)NC1=O [gAusIA [∆5 ∆16]] (H-SCCANPACRHNHPC-NH2; disulfide 2-8, 3-14)	0.241 ± 0.062 µM
CC(C)[C@H](NC(=O)[C@@H]1CSSC[C@@H]2NC(=O)[C@@H](NC(=O)[C@@H](N)CO)CSSC[C@H](NC(=O)[C@H](C)NC(=O)[C@@H]3CCCN3C(=O)[C@H](CC(N)=O)NC(=O)[C@H](CCCNC(=N)N)NC(=O)[C@H](CO)NC2=O)C(=O)N[C@@H](CCCNC(=N)N)C(=O)N[C@@H](Cc2c[nH]cn2)C(=O)N[C@@H](CC(N)=O)C(=O)N[C@@H](Cc2c[nH]cn2)C(=O)N2CCC[C@H]2C(=O)N1)C(N)=O [gAusIA [A4S]] (H-SCCSRNPACRHNHPCV-NH2; disulfide 2-9, 3-15)	70 ± 12.9 µM
C[C@@H]1NC(=O)[C@@H]2CSSC[C@H](NC(=O)[C@H](C)NC(=O)[C@@H]3CCCN3C(=O)[C@H](CC(N)=O)NC(=O)[C@H](CCCNC(=N)N)NC1=O)C(=O)N[C@@H](CCCNC(=N)N)C(=O)N[C@@H](Cc1c[nH]cn1)C(=O)N[C@@H](CC(N)=O)C(=O)N[C@@H](Cc1c[nH]cn1)C(=O)N1CCC[C@H]1C(=O)N[C@H](C(N)=O)CSSC[C@H](NC(=O)[C@@H](N)CO)C(=O)N2 [rAusIA [∆16]] (H-SCCARNPACRHNHPC-NH2; disulfide 2-15, 3-9)	60 ± 9.9 µM
